Measured values reported in US9428508B2, “2,4-diamino-6,7-dihydro-5H-pyrrolo[2,3]pyrimidine derivatives as FAK/Pyk2 inhibitors” (Centaurus BioPharma Co., Ltd., priority 2011, dated 2016).

Legend:
FAK = FAK (Homo sapiens (Human), UniProt Q05397); assay: Biochemical assay for FAK activity (LANCE TR-FRET, ULight-poly Glu,Ala,Tyr substrate); conditions: GST-tagged FAK, 120 min reaction
Experimental: (§1) Biochemical Assay for FAK/Pyk2 Activity
(§2) GST-tagged FAK was purchased from Invitrogen (PV3832). GST-tagged PYK2 was purchased from Invitrogen (PV4567). The activity of FAK/PYK2 was measured by monitoring the phosphorylation of a fluorophore labeled ULight-poly Glu, Ala, Tyr (1:1:1) peptide substrate from Perkin Elmer (TRF0101) in the presence of ATP. The phosphorylated tyrosine residue was recognized by a LANCE Europium chelate labeled anti-phosphotyrosine (PY20) antibody from Perkin Elmer (AD0066). This brought the fluorophore and europium chelate in close proximity ([…]) that upon excitation at 320 nm by an Envision (PerkinElmer), energy can be transferred from the donor Europium chelate to the acceptor fluorophore. […] The strength of the signal was, therefore, directly proportional to the FAK/PYK2 activity.
(§3) To measure inhibitory activity of FAK/PYK2 inhibitors, compounds were first prepare as a 1 mM stock in 100% DMSO and 3-fold serial dilution was performed in a 96-well plate (Corning, 3897) to generate 12 different concentration of 100× stock. A 5 μl of 100× stock of each concentration was added to wells containing 95 μl of 1× reaction buffer (40 mM Tris, pH7.5, […], 1 mM DTT and 1 mM CHAPS) to generate 5× stock. Then 2 μl of 5× stock of each concentration was added to a 384 wells-OptiPlate (PerkinElmer, 6007299).
(§4) For FAK, 4 μl of 2.5 nM FAK, 1 ul of 8 μg/μl BSA and 1.5 μl of 666 nM ULight-poly Glu, Ala, Tyr (1:1:1) peptide substrate, prepared in above reaction buffer, were added to each well. The reaction was initiated by adding 1.5 μl of 33.3 μM ATP. The reaction was allowed to proceed for 120 min before being quenched with 5 μl of 40 mM EDTA stop buffer prepared in 1×LANCE detection buffer (PerkinElmer, CR97-100).
(§5) Upon quenching of the reaction, 5 μl of 8 nM anti-phosphotyrosine antibody was added to each well and incubated for 60 minutes. The plate was measured using an Envision (PerkinElmer) based on the theory mentioned above.

PYK2 = PYK2 (Homo sapiens (Human), UniProt Q14289); assay: Biochemical assay for PYK2 activity (LANCE TR-FRET, ULight-poly Glu,Ala,Tyr substrate); conditions: GST-tagged PYK2, 40 min reaction
Sequence of PYK2 (Q14289 whole entry): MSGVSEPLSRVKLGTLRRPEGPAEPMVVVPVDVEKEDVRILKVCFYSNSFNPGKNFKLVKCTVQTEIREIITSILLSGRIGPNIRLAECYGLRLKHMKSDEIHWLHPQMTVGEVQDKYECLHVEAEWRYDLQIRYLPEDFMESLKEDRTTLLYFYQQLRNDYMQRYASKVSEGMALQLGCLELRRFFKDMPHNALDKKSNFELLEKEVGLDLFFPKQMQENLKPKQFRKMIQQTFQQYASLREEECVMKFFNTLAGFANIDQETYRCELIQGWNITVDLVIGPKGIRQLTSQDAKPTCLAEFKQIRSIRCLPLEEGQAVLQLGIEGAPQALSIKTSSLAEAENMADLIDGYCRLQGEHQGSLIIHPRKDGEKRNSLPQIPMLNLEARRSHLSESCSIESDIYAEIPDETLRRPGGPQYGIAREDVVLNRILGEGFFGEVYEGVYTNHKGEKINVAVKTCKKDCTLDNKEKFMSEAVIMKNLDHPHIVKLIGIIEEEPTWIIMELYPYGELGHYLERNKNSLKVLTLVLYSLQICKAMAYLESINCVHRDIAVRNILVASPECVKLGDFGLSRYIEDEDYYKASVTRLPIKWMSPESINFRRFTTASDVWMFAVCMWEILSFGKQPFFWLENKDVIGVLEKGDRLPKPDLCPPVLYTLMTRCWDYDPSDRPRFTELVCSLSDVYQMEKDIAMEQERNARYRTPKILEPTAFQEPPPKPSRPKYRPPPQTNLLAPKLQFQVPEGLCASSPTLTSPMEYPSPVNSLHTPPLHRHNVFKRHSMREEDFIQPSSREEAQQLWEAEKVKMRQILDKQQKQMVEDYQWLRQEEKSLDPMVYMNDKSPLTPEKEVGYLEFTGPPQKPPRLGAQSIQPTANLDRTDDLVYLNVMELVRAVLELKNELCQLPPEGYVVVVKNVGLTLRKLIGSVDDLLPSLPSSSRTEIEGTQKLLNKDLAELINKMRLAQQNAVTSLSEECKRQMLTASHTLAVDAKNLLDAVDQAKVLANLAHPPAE
Experimental: as §1, §2, §3
as §4, with “PYK2, 5” for “FAK, 4”, “2” for “2.5”, “PYK2” for “FAK, 1 ul of 8 μg/μl BSA”, “46.6” for “33.3”, “40” for “120”
as §5

Sequence of FAK (Q05397 whole entry): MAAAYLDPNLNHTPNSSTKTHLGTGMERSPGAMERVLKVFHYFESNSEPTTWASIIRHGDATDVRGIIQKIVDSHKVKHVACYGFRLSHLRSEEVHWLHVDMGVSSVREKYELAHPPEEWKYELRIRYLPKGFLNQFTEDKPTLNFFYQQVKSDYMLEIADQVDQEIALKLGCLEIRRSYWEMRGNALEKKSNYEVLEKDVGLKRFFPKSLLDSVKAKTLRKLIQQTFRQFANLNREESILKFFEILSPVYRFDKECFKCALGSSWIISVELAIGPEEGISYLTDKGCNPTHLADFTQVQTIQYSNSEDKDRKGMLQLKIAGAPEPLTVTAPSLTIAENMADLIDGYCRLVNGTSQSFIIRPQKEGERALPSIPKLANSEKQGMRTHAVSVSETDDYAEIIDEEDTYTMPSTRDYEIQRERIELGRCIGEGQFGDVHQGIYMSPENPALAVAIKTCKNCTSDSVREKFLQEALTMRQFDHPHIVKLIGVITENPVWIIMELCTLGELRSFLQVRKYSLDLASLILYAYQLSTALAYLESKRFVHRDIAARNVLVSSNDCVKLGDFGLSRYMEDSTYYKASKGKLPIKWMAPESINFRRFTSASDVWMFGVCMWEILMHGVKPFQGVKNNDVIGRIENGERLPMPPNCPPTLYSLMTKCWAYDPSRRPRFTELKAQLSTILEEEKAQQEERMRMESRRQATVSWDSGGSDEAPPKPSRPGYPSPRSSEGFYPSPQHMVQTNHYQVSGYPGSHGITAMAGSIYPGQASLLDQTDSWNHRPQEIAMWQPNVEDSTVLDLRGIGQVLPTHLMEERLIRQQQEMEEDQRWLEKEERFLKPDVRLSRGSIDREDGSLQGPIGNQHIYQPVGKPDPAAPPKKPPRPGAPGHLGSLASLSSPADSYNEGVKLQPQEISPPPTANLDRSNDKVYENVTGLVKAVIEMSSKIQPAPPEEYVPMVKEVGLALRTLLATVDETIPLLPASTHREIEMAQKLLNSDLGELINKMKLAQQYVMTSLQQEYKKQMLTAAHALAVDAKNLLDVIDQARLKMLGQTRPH

IC50 (FAK) [nM] | IC50 (PYK2) [nM] | Compound
< 50 | < 50 | CNC(=O)c1ccccc1Nc1nc(Nc2ccc(N3CCOCC3)cc2OC)nc2c1C(C)CN2 (racemic) [Example 23, (±)-2-(2-(2-methoxy-4-morpholinophenylamino)-5-methyl-6,7-dihydro-5H-pyrrolo[2,3-d]pyrimidin-4-ylamino)-N-methylbenzamide]
< 200 | < 500 | COc1cc(N2CCOCC2)ccc1Nc1nc2c(c(Nc3ccccc3C(=O)N3CCCC3)n1)C(C)CN2 (racemic) [Example 24, (±)-(2-(2-(2-methoxy-4-morpholinophenylamino)-5-methyl-6,7-dihydro-5H-pyrrolo[2,3-d]pyrimidin-4-ylamino)phenyl)(pyrrolidin-1-yl)methanone]
< 50 | < 20 | CNS(=O)(=O)c1ccccc1Nc1nc(Nc2ccc(N3CCOCC3)cc2OC)nc2c1C(C)CN2 (racemic) [Example 25, (±)-2-(2-(2-methoxy-4-morpholinophenylamino)-5-methyl-6,7-dihydro-5H-pyrrolo[2,3-d]pyrimidin-4-ylamino)-N-methylbenzenesulfonamide]
< 20 | < 20 | CCCNS(=O)(=O)c1ccccc1Nc1nc(Nc2ccc(N3CCOCC3)cc2OC)nc2c1C(C)CN2 (racemic) [Example 26, (±)-2-(2-(2-methoxy-4-morpholinophenylamino)-5-methyl-6,7-dihydro-5H-pyrrolo[2,3-d]pyrimidin-4-ylamino)-N-propylbenzenesulfonamide]
< 20 | < 20 | COc1cc(N2CCOCC2)ccc1Nc1nc2c(c(Nc3ccccc3S(=O)(=O)NC3CCC3)n1)C(C)CN2 (racemic) [Example 27, (±)-N-cyclobutyl-2-(2-(2-methoxy-4-morpholinophenylamino)-5-methyl-6,7-dihydro-5H-pyrrolo[2,3-d]pyrimidin-4-ylamino)benzenesulfonamide]
< 300 | < 50 | COc1cc(N2CCOCC2)ccc1Nc1nc2c(c(Nc3ccccc3S(=O)(=O)NC3CCCC3)n1)C(C)CN2 (racemic) [Example 28, (±)-N-cyclopentyl-2-(2-(2-methoxy-4-morpholinophenylamino)-5-methyl-6,7-dihydro-5H-pyrrolo[2,3-d]pyrimidin-4-ylamino)benzenesulfonamide]
< 50 | < 500 | COc1cc(N2CCOCC2)ccc1Nc1nc2c(c(Nc3ccccc3S(=O)(=O)NC3CCCCC3)n1)C(C)CN2 (racemic) [Example 29, (±)-N-cyclohexyl-2-(2-(2-methoxy-4-morpholinophenylamino)-5-methyl-6,7-dihydro-5H-pyrrolo[2,3-d]pyrimidin-4-ylamino)benzenesulfonamide]
< 200 | < 200 | COc1cc(N2CCOCC2)ccc1Nc1nc2c(c(Nc3ccccc3NC(C)=O)n1)C(C)CN2 (racemic) [Example 30, (±)-N-(2-(2-(2-methoxy-4-morpholinophenylamino)-5-methyl-6,7-dihydro-5H-pyrrolo[2,3-d]pyrimidin-4-ylamino)phenyl)acetamide]
< 30 | < 20 | COc1cc(N2CCOCC2)ccc1Nc1nc2c(c(Nc3ccccc3N(C)S(C)(=O)=O)n1)C(C)CN2 (racemic) [Example 31, (±)-N-(2-(2-(2-methoxy-4-morpholinophenylamino)-5-methyl-6,7-dihydro-5H-pyrrolo[2,3-d]pyrimidin-4-ylamino)phenyl)-N-methylmethanesulfonamide]
< 20 | > 1000 | COc1cc(N2CCOCC2)ccc1Nc1nc(NCc2ccccc2N(C)S(C)(=O)=O)c2c(n1)NCC2C (racemic) [Example 32, (±)-N-(2-((2-(2-methoxy-4-morpholinophenylamino)-5-methyl-6,7-dihydro-5H-pyrrolo[2,3-d]pyrimidin-4-ylamino)methyl)phenyl)-N-methylmethanesulfonamide]
< 500 | < 1000 | COc1cc(N2CCOCC2)ccc1Nc1nc2c(c(Nc3cccc(C)n3)n1)C(C)CN2 (racemic) [Example 33, (±)-N^2-(2-methoxy-4-morpholinophenyl)-5-methyl-N^4-(6-methylpyridin-2-yl)-6,7-dihydro-5H-pyrrolo[2,3-d]pyrimidine-2,4-diamine]
> 1000 | < 1000 | COc1cc(N2CCOCC2)ccc1Nc1nc2c(c(Nc3ccc(F)c(F)c3)n1)C(C)CN2 (racemic) [Example 34, (±)-N^4-(3,4-difluorophenyl)-N^2-(2-methoxy-4-morpholinophenyl)-5-methyl-6,7-dihydro-5H-pyrrolo[2,3-d]pyrimidine-2,4-diamine]
< 100 | < 100 | CNC(=O)c1ccccc1Nc1nc(Nc2ccc(N3CCOCC3)cc2OC)nc2c1CCN2 [Example 1, 2-(2-(2-methoxy-4-morpholinophenylamino)-6,7-dihydro-5H-pyrrolo[2,3-d]pyrimidin-4-ylamino)-N-methylbenzamide]
> 1000 | > 1000 | CNC(=O)c1ccc2c(c1Nc1nc(Nc3ccc(N4CCOCC4)cc3OC)nc3c1CCN3)OCO2 [Example 2, 4-(2-(2-methoxy-4-morpholinophenylamino)-6,7-dihydro-5H-pyrrolo[2,3-d]pyrimidin-4-ylamino)-N-methylbenzo[d][1,3]dioxole-5-carboxamide]
> 1000 | > 1000 | COc1cc(N2CCOCC2)ccc1Nc1nc2c(c(Nc3ccccc3C(=O)N3CCCC3)n1)CCN2 [Example 3, (2-(2-(2-methoxy-4-morpholinophenylamino)-6,7-dihydro-5H-pyrrolo[2,3-d]pyrimidin-4-ylamino)phenyl)(pyrrolidin-1-yl)methanone]
< 20 | < 50 | CNS(=O)(=O)c1ccccc1Nc1nc(Nc2ccc(N3CCOCC3)cc2OC)nc2c1CCN2 [Example 4, 2-(2-(2-methoxy-4-morpholinophenylamino)-6,7-dihydro-5H-pyrrolo[2,3-d]pyrimidin-4-ylamino)-N-methylbenzenesulfonamide]
< 20 | < 20 | CCCNS(=O)(=O)c1ccccc1Nc1nc(Nc2ccc(N3CCOCC3)cc2OC)nc2c1CCN2 [Example 5, 2-(2-(2-methoxy-4-morpholinophenylamino)-6,7-dihydro-5H-pyrrolo[2,3-d]pyrimidin-4-ylamino)-N-propylbenzenesulfonamide]
< 20 | < 20 | COc1cc(N2CCOCC2)ccc1Nc1nc2c(c(Nc3ccccc3S(=O)(=O)NC3CCC3)n1)CCN2 [Example 6, N-cyclobutyl-2-(2-(2-methoxy-4-morpholinophenylamino)-6,7-dihydro-5H-pyrrolo[2,3-d]pyrimidin-4-ylamino)benzenesulfonamide]
< 50 | < 100 | COc1cc(N2CCOCC2)ccc1Nc1nc2c(c(Nc3ccccc3S(=O)(=O)NC3CCCC3)n1)CCN2 [Example 7, N-cyclopentyl-2-(2-(2-methoxy-4-morpholinophenylamino)-6,7-dihydro-5H-pyrrolo[2,3-d]pyrimidin-4-ylamino)benzenesulfonamide]
< 200 | < 500 | COc1cc(N2CCOCC2)ccc1Nc1nc2c(c(Nc3ccccc3S(=O)(=O)NC3CCCCC3)n1)CCN2 [Example 8, N-cyclohexyl-2-(2-(2-methoxy-4-morpholinophenylamino)-6,7-dihydro-5H-pyrrolo[2,3-d]pyrimidin-4-ylamino)benzenesulfonamide]
< 1000 | < 1000 | COc1cc(N2CCOCC2)ccc1Nc1nc2c(c(Nc3ccccc3NC(C)=O)n1)CCN2 [Example 9, N-(2-(2-(2-methoxy-4-morpholinophenylamino)-6,7-dihydro-5H-pyrrolo[2,3-d]pyrimidin-4-ylamino)phenyl)acetamide]
< 100 | < 50 | COc1cc(N2CCOCC2)ccc1Nc1nc2c(c(Nc3ccccc3N(C)S(C)(=O)=O)n1)CCN2 [Example 10, N-(2-(2-(2-methoxy-4-morpholinophenylamino)-6,7-dihydro-5H-pyrrolo[2,3-d]pyrimidin-4-ylamino)phenyl)-N-methylmethanesulfonamide]
< 100 | > 2000 | COc1cc(N2CCOCC2)ccc1Nc1nc2c(c(NCc3ccccc3N(C)S(C)(=O)=O)n1)CCN2 [Example 11, N-(2-((2-(2-methoxy-4-morpholinophenylamino)-6,7-dihydro-5H-pyrrolo[2,3-d]pyrimidin-4-ylamino)methyl)phenyl)-N-methylmethanesulfonamide]
